Reference: ChEMBL document CHEMBL3885881, “DrugMatrix”

Species on record: Rattus norvegicus
Assay: DrugMatrix - Regimen: Daily Repeat
Format: toxicity, organism-based, Sprague-Dawley
Parameters: regimen Daily Repeat, gender Male, age 6-8 weeks
Conditions: in vivo, po, route oral GAVAGE, […]; for ABSOLUTE BASOPHIL / ABSOLUTE EOSINOPHIL / ABSOLUTE LYMPHOCYTE / ABSOLUTE MONOCYTE / ABSOLUTE SEGMENTED NEUTROPHIL / BASOPHIL / EOSINOPHIL / ERYTHROCYTE COUNT / HEMATOCRIT / HEMOGLOBIN / LEUKOCYTE COUNT / LYMPHOCYTE / MEAN CORPUSCULAR HEMOGLOBIN / MEAN CORPUSCULAR HEMOGLOBIN CONCENTRATION / MEAN CORPUSCULAR VOLUME / MONOCYTE / NEUTROPHIL / NUCLEATED RED BLOOD CELLS / PLATELET COUNT: tissue Blood; for ALANINE AMINOTRANSFERASE / ALBUMIN / ALKALINE PHOSPHATASE / ASPARTATE AMINOTRANSFERASE / BLOOD UREA NITROGEN / CARBON DIOXIDE / CHLORIDE / CHOLESTEROL / CREATINE PHOSPHOKINASE / CREATININE / GLUCOSE / LACTATE DEHYDROGENASE / LIPASE / PHOSPHORUS / POTASSIUM / SODIUM / TOTAL BILIRUBIN / TOTAL PROTEIN / URIC ACID: tissue Plasma
[1] = 10 mg/kg, 120 h, dose level Low, time 5 day
[2] = 1100 mg/kg, 72 h, dose level High, time 3 day
[3] = 1100 mg/kg, 120 h, dose level High, time 5 day

`COCCOC(=O)C1=C(C)NC(C)=C(C(=O)OC(C)C)C1c1cccc([N+](=O)[O-])c1` (centres undefined) [NIMODIPINE] was tested, and the “ABSOLUTE BASOPHIL” value [1] was 0 CELLS/uL, the “ABSOLUTE EOSINOPHIL” value [1] was 0 CELLS/uL and the “ABSOLUTE LYMPHOCYTE” value [1] was 13499.67 CELLS/uL. For the same compound, the “ABSOLUTE MONOCYTE” value [1] was 96.33 CELLS/uL, the “ABSOLUTE SEGMENTED NEUTROPHIL” value [1] was 1037.33 CELLS/uL and the BASOPHIL [1] was 0%. The EOSINOPHIL [1] was 0%, the “ERYTHROCYTE COUNT” value [1] was 5.7 x10E6/uL and the HEMATOCRIT [1] was 36.23%. The HEMOGLOBIN [1] was 13.9 G/DL, the “LEUKOCYTE COUNT” value [1] was 14.63 x10E3/uL and the LYMPHOCYTE [1] was 92.67%. The “MEAN CORPUSCULAR HEMOGLOBIN” value [1] was 24.4 pg, the “MEAN CORPUSCULAR HEMOGLOBIN CONCENTRATION” value [1] was 38.37 G/DL and the “MEAN CORPUSCULAR VOLUME” value [1] was 63.63 fL. The MONOCYTE [1] was 0.67%, the NEUTROPHIL [1] was 6.67% and the “NUCLEATED RED BLOOD CELLS” value [1] was 0 /100WBC. For the same compound, the “PLATELET COUNT” value [1] was 940 x10E3/uL, the “ALANINE AMINOTRANSFERASE” value [1] was 59.33 u/L and the ALBUMIN [1] was 4.3 G/DL. The “ALKALINE PHOSPHATASE” value [1] was 389.33 u/L, the “ASPARTATE AMINOTRANSFERASE” value [1] was 102.33 u/L and the “BLOOD UREA NITROGEN” value [1] was 15 mg/dL. The “CARBON DIOXIDE” value [1] was 31.67 mmol/L, the CHLORIDE [1] was 100 MEQ/L and the CHOLESTEROL [1] was 63 mg/dL. For the same compound, the “CREATINE PHOSPHOKINASE” value [1] was 716.33 u/L, the CREATININE [1] was 0.16 mg/dL and the GLUCOSE [1] was 145.33 mg/dL. For the same compound, the “LACTATE DEHYDROGENASE” value [1] was 194.33 u/L, the LIPASE [1] was 9.33 u/L and the PHOSPHORUS [1] was 10.4 mg/dL. The POTASSIUM [1] was 5.95 MEQ/L, the SODIUM [1] was 143.1 MEQ/L and the “TOTAL BILIRUBIN” value [1] was 0.23 mg/dL. The “TOTAL PROTEIN” value [1] was 6.2 G/DL, the “URIC ACID” value [1] was 0.83 mg/dL and the “ABSOLUTE BASOPHIL” value [2] was 0 CELLS/uL. The “ABSOLUTE EOSINOPHIL” value [2] was 0 CELLS/uL, the “ABSOLUTE LYMPHOCYTE” value [2] was 8640.33 CELLS/uL and the “ABSOLUTE MONOCYTE” value [2] was 0 CELLS/uL. For the same compound, the “ABSOLUTE SEGMENTED NEUTROPHIL” value [2] was 859.67 CELLS/uL, the BASOPHIL [2] was 0% and the EOSINOPHIL [2] was 0%. For the same compound, the “ERYTHROCYTE COUNT” value [2] was 6.21 x10E6/uL, the HEMATOCRIT [2] was 37.2% and the HEMOGLOBIN [2] was 14.77 G/DL. The “LEUKOCYTE COUNT” value [2] was 9.5 x10E3/uL, the LYMPHOCYTE [2] was 91% and the “MEAN CORPUSCULAR HEMOGLOBIN” value [2] was 23.77 pg. The “MEAN CORPUSCULAR HEMOGLOBIN CONCENTRATION” value [2] was 39.7 G/DL, the “MEAN CORPUSCULAR VOLUME” value [2] was 59.87 fL and the MONOCYTE [2] was 0%. The NEUTROPHIL [2] was 9%, the “NUCLEATED RED BLOOD CELLS” value [2] was 0.33 /100WBC and the “PLATELET COUNT” value [2] was 1341.67 x10E3/uL. For the same compound, the “ALANINE AMINOTRANSFERASE” value [2] was 90 u/L, the ALBUMIN [2] was 4.17 G/DL and the “ALKALINE PHOSPHATASE” value [2] was 427.67 u/L. For the same compound, the “ASPARTATE AMINOTRANSFERASE” value [2] was 82.67 u/L, the “BLOOD UREA NITROGEN” value [2] was 13 mg/dL and the “CARBON DIOXIDE” value [2] was 27.33 mmol/L. The CHLORIDE [2] was 97.67 MEQ/L, the CHOLESTEROL [2] was 77.67 mg/dL and the “CREATINE PHOSPHOKINASE” value [2] was 248.33 u/L. The CREATININE [2] was 0.17 mg/dL, the GLUCOSE [2] was 211.67 mg/dL and the “LACTATE DEHYDROGENASE” value [2] was 205.33 u/L. The LIPASE [2] was 11.33 u/L, the PHOSPHORUS [2] was 10.23 mg/dL and the POTASSIUM [2] was 4.32 MEQ/L. The SODIUM [2] was 139.8 MEQ/L, the “TOTAL BILIRUBIN” value [2] was 0.4 mg/dL and the “TOTAL PROTEIN” value [2] was 6.33 G/DL. The “URIC ACID” value [2] was 0.47 mg/dL, the “ABSOLUTE BASOPHIL” value [3] was 0 CELLS/uL and the “ABSOLUTE EOSINOPHIL” value [3] was 0 CELLS/uL. For the same compound, the “ABSOLUTE LYMPHOCYTE” value [3] was 5312.67 CELLS/uL, the “ABSOLUTE MONOCYTE” value [3] was 159.33 CELLS/uL and the “ABSOLUTE SEGMENTED NEUTROPHIL” value [3] was 1728 CELLS/uL. The BASOPHIL [3] was 0%, the EOSINOPHIL [3] was 0% and the “ERYTHROCYTE COUNT” value [3] was 7.19 x10E6/uL. The HEMATOCRIT [3] was 42.83%, the HEMOGLOBIN [3] was 16.87 G/DL and the “LEUKOCYTE COUNT” value [3] was 7.2 x10E3/uL. For the same compound, the LYMPHOCYTE [3] was 75.67%, the “MEAN CORPUSCULAR HEMOGLOBIN” value [3] was 23.43 pg and the “MEAN CORPUSCULAR HEMOGLOBIN CONCENTRATION” value [3] was 39.33 G/DL. For the same compound, the “MEAN CORPUSCULAR VOLUME” value [3] was 59.63 fL, the MONOCYTE [3] was 2% and the NEUTROPHIL [3] was 22.33%. The “NUCLEATED RED BLOOD CELLS” value [3] was 0 /100WBC, the “PLATELET COUNT” value [3] was 1410 x10E3/uL and the “ALANINE AMINOTRANSFERASE” value [3] was 65.33 u/L. The ALBUMIN [3] was 4 G/DL, the “ALKALINE PHOSPHATASE” value [3] was 160 u/L and the “ASPARTATE AMINOTRANSFERASE” value [3] was 89.33 u/L. The “BLOOD UREA NITROGEN” value [3] was 43.67 mg/dL, the “CARBON DIOXIDE” value [3] was 34.33 mmol/L and the CHLORIDE [3] was 84 MEQ/L. The CHOLESTEROL [3] was 75 mg/dL, the “CREATINE PHOSPHOKINASE” value [3] was 283.67 u/L and the CREATININE [3] was 0.22 mg/dL. For the same compound, the GLUCOSE [3] was 198.67 mg/dL, the “LACTATE DEHYDROGENASE” value [3] was 180 u/L and the LIPASE [3] was 12.33 u/L. The PHOSPHORUS [3] was 9.97 mg/dL, the POTASSIUM [3] was 3.85 MEQ/L and the SODIUM [3] was 133.83 MEQ/L. For the same compound, the “TOTAL BILIRUBIN” value [3] was 0.3 mg/dL, the “TOTAL PROTEIN” value [3] was 6.2 G/DL and the “URIC ACID” value [3] was 0.3 mg/dL.
